In publication PMC7470127, “Design, synthesis, and evaluation of 1, 4-benzodioxan-substituted chalcones as selective and reversible inhibitors of human monoamine oxidase B” (Journal of Enzyme Inhibition and Medicinal Chemistry, 2020):

Legend:
hMAO-B = target: T1, hMAO-B (Homo sapiens, UniProt P27338); test: hMAO inhibition assay (Amplex Red fluorescence), hMAO-B, benzylamine substrate; type: biochemical; conditions: for inhibition at 1 µM: tested concentration 1 µM; for Selectivity Index (SI): SI = IC50 (hMAO-A)/IC50 (hMAO-B); for fold higher inhibitory potency than 4: from IC50, versus compound 4; for IC50: recombinant hMAO-B, read-out: hMAO-B IC50
T1 sequence (P27338 1-520): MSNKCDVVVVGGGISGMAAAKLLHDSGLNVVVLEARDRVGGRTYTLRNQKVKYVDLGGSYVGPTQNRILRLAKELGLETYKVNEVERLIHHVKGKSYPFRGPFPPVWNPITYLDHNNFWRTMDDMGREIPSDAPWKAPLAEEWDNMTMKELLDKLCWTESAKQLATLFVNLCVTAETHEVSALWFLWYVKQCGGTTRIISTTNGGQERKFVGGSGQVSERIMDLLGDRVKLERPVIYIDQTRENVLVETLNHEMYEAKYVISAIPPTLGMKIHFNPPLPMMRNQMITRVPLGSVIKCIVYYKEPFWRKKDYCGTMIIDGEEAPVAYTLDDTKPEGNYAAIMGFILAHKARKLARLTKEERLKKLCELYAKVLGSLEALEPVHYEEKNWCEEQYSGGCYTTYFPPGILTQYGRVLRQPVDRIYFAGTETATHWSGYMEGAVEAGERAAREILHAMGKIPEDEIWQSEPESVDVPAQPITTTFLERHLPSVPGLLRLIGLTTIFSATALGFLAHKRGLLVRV
Method: The hMAO inhibition assay was performed as previously described. […] The test compounds were dissolved in DMSO as stock solutions (10 mM) and diluted with sodium phosphate buffer (50 mM, pH 7.4) to the corresponding concentrations. […] The specific fluorescence emission was calculated after subtraction of the background activity. The background activity was determined from wells containing all components except the hMAO isoforms, which were replaced by a sodium phosphate buffer solution. The percentage inhibition was calculated by the following expression: (1 – IFi/IFc) × 100, in which IFi and IFc are the fluorescence intensities obtained for hMAO in the presence and absence of inhibitors after subtracting the respective background.

hMAO-A = target: T2, hMAO-A (Homo sapiens, UniProt P21397); test: hMAO inhibition assay (Amplex Red fluorescence), hMAO-A, p-tyramine substrate; type: biochemical; conditions: for IC50: recombinant hMAO-A
T2 sequence (P21397 1-527): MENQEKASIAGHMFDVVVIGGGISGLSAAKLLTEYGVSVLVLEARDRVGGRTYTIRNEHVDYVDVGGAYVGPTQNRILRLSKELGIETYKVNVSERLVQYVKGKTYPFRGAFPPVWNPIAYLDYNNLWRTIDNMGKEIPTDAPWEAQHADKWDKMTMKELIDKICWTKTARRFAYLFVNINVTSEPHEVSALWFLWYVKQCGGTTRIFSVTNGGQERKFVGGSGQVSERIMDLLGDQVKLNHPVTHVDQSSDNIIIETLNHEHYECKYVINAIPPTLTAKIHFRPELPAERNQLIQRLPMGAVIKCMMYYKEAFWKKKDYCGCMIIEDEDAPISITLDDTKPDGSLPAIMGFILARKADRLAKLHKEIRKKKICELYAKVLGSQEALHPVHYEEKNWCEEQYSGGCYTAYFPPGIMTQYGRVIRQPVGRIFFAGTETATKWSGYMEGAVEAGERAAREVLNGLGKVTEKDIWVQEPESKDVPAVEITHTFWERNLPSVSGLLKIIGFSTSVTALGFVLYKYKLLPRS
Method: The hMAO inhibition assay was performed as previously described. Adequate amounts of recombinant hMAO-A/B were acquired and adjusted to 12.5 µg/mL or 75 µg/mL for hMAO-A or hMAO-B, respectively, with sodium phosphate buffer (50 mM, pH 7.4). The test compounds were dissolved in DMSO as stock solutions (10 mM) and diluted with sodium phosphate buffer (50 mM, pH 7.4) to the corresponding concentrations. Then the test compounds (20 µL) and hMAO (80 µL) were incubated for 15 min at 37 °C in a flat, black-bottomed 96-well microtest plate in the dark. The reaction was initiated by adding Amplex Red reagent (200 µM, final concentration), horseradish peroxidase (2 U/mL, final concentration), and 2 mM p-tyramine for hMAO-A or 2 mM benzylamine (final concetration) for hMAO-B and incubated at 37 °C for 20 min. Activity was quantified in a multi detection microplate fluorescence reader (SpectraMax M5, Molecular Devices, USA) based on the fluorescence generated (excitation, 545 nm; emission, 590 nm). The specific fluorescence emission was calculated after subtraction of the background activity. The background activity was determined from wells containing all components except the hMAO isoforms, which were replaced by a sodium phosphate buffer solution. The percentage inhibition was calculated by the following expression: (1 – IFi/IFc) × 100, in which IFi and IFc are the fluorescence intensities obtained for hMAO in the presence and absence of inhibitors after subtracting the respective background. […]

Row | SMILES | inhibition at 1 µM (hMAO-B) [%] | IC50 (hMAO-A) [µM] | Selectivity Index (SI) (hMAO-B) | fold higher inhibitory potency than 4 (hMAO-B) | IC50 (hMAO-B) [µM] | melting point [°C] | inhibition at 0.1 µM (hMAO-A; read-out: hMAO-A % inhibition) [%] | fold higher hMAO-B inhibition than 1 (hMAO-B; from IC50, versus compound 1) [fold]
1 | O=C(/C=C/c1ccc2ccccc2c1)c1ccccc1 [Compound 2, (E)-3-(naphthalen-2-yl)-1-phenylprop-2-en-1-one] | 18.1 | > 40 | – | – | – | – | – | –
2 | O=C(/C=C/c1ccc2c(c1)OCCO2)c1ccccc1F [Compound 12, (E)-3–(2,3-dihydrobenzo[b][1,4]dioxin-6-yl)-1-(2-fluorophenyl)prop-2-en-1-one] | 89.2 | > 40 | >333 | 1.8–4.1 fold | 0.12 ± 0.01 | 93.7 to 95.4 | – | –
3 | O=C(/C=C/c1ccc2c(c1)OCCO2)c1ccc(Cl)cc1 [Compound 18, (E)-1–(4-chlorophenyl)-3–(2,3-dihydrobenzo[b][1,4]dioxin-6-yl)prop-2-en-1-one] | 69.9 | > 40 | – | – | – | – | – | –
4 | O=C(/C=C/c1ccc2c(c1)OCCO2)c1cc(Br)ccc1O [Compound 24, (E)-1-(5-bromo-2-hydroxyphenyl)-3-(2,3-dihydrobenzo[b][1,4]dioxin-6-yl)prop-2-en-1-one] | 77.1 | > 40 | >160 | – | 0.25 ± 0.03 | 141.8 to 143.7 | – | –
5 | O=C(/C=C/c1ccc2c(c1)OCCO2)c1ccccc1O [Compound 5, (E)-3-(2,3-dihydrobenzo[b][1,4]dioxin-6-yl)-1-(2-hydroxyphenyl)prop-2-en-1-one] | 75 | > 40 | >133 | – | 0.3 ± 0.02 | 120.8 to 122.3 | – | –
6 | COc1cccc(C(=O)/C=C/c2ccc3c(c2)OCCO3)c1 [Compound 6, (E)-3-(2,3-dihydrobenzo[b][1,4]dioxin-6-yl)-1–(3-methoxyphenyl)prop-2-en-1-one] | 78 | > 40 | >118 | – | 0.34 ± 0.01 | 94.4 to 95.6 | – | –
7 | O=C(/C=C/c1ccc2c(c1)OCCO2)c1ccc(Cl)c(Cl)c1 [Compound 23, (E)-1-(3,4-dichlorophenyl)-3–(2,3-dihydrobenzo[b][1,4]dioxin-6-yl)prop-2-en-1-one] | 88.8 | > 40 | >235 | – | 0.17 ± 0.02 | 156.6 to 157.9 | – | –
8 | O=C(/C=C/c1ccc2c(c1)OCO2)c1ccccc1 [Compound 3, (E)-3-(benzo[d][1,3]dioxol-5-yl)-1-phenylprop-2-en-1-one] | 50.8 | > 40 | – | – | – | – | – | –
9 | O=C(/C=C/c1ccc2c(c1)OCO2)c1ccc(Cl)cc1 [Compound 28, (E)-3-(benzo[d][1,3]dioxol-5-yl)-1-(4-chlorophenyl)prop-2-en-1-one] | 57.5 | > 40 | – | – | – | – | – | –
10 | O=C(/C=C/c1ccc2c(c1)OCCO2)c1cccc(F)c1 [Compound 15, (E)-3-(2,3-dihydrobenzo[b][1,4]dioxin-6-yl)-1-(3-fluorophenyl)prop-2-en-1-one] | 89.2 | > 40 | >308 | 1.7–4 fold | 0.13 ± 0.007 | – | – | –
11 | C#CCN(C)CCCOc1ccc(Cl)cc1Cl [clorgyline, reference compound] | – | – | – | – | – | – | 86.6 | –
12 | O=C(C=Cc1ccccc1)c1ccccc1 [Compound 1, 1,3-diphenyl-2-propen-1-one] | – | > 40 | – | – | 13.04 ± 0.06 | – | – | –
13 | O=C(/C=C/c1ccc2c(c1)OCCO2)c1ccccc1 [Compound 4, (E)-3-(2,3-dihydrobenzo[b][1,4]dioxin-6-yl)-1-phenylprop-2-en-1-one] | 84.9 | > 40 | >186 | – | – | – | – | 55
14 | O=C(/C=C/c1ccc2c(c1)OCCO2)c1ccc(O)cc1 [Compound 7, (E)-3–(2,3-dihydrobenzo[b][1,4]dioxin-6-yl)-1-(4-hydroxyphenyl)prop-2-en-1-one] | 26 | > 40 | – | – | – | – | – | –
